Measurements published in PMC7730438, “Generation of KS-58 as the first K-Ras(G12D)-inhibitory peptide presenting anti-cancer activity in vivo” (Scientific Reports, 2020).
Starred links: 1 amine or outer side, 2 acyl side, 3 side chain; linkers in the order of their positions; H or OH if unused. Positions of bridges follow the written chain, without caps; N, C: chain ends. Non-standard residues stand in square brackets, D forms with d. Residues, ends and D or L forms follow the SMILES beside them. Phe(4-F) = N[C@@H](Cc1ccc(F)cc1)C(=O)O; X1 = CCCCCCC[C@H](N[*:1])C(=O)[*:2]; Nle = CCCC[C@H](N)C(=O)O; X2 = C(C[*:1])C[*:2]; βAla = NCCC(=O)O

Legend:
[1] = Pharmacokinetics study in mice, intravenous injection; assay type: in vivo
Description: Prior to the in vivo anti-cancer activity evaluation, a preliminary pharmacokinetics (PK) study was completed using a 20 mg/kg intravenous injection. Plasma was collected at 15 min, 1 h, 4 h, and 24 h after injection. […] KS-58 was detected in plasma 15 min and 1 h after intravenous injection, but it was not detected at 4 h and 24 h, due to the limited detection ability of RP-HPLC. The concentration change indicated a two-compartment model (Fig. 5A).
Animal experiments were carried out at UNITECH Co. Ltd. (Chiba, Japan) in accordance with the guidelines of the Animal Care and Use Committee of UNITECH (approval No. AGR IMF-190807A-30). KS-58 was dissolved in DMSO and then tenfold diluted by saline. The peptide solution was injected intravenously to Slc:ICR male mice (8 weeks old; Japan SLC, Inc.) (20 mg/kg, n = 3). Blood samples were collected from the mice at 15 min, 1 h, 4 h, and 24 h after injection. The blood was chilled on ice and then centrifuged at 12,000 rpm for 3 min at 4 °C. Plasma protein was precipitated by acetonitrile, and the supernatant was recovered. The remaining peptides in prepared samples were analyzed by RP-HPLC as described above.

[2] = test system: PANC-1 subcutaneous xenografts; experiment: Anti-cancer efficacy in PANC-1 subcutaneous xenografts; assay type: in vivo, mice; conditions: 40 mg/kg iv once every 2 days for 4 weeks
Description: Animal experiments were carried out at UNITECH Co. Ltd. in accordance with the guidelines of the Animal Care and Use Committee of UNITECH (approval No. AGR IMF-190807A-31, -33, AGR IMF-20615A-30). To establish subcutaneous xenograft tumor models, 1 × 10^7 cells/150 µL of PANC-1 cells were subcutaneously injected into the flank of Crlj:SHO-Prkdc^scidHr^hr female mice (7 weeks old; Charles River Laboratories). KS-58 was dissolved in DMSO and then tenfold diluted by saline. The peptide solution was injected intravenously to the mice bearing tumors once every 2 days for 4 weeks (40 mg/kg, n = 10). The tumor growth rate was recorded every 3 days by measuring the major and minor axes of the tumors formed with a digital caliper. Measurements were transformed into tumor volume using the formula: tumor volume (mm^3) = major axis × minor axis^2 × 0.5.

In the case of `CCCCCCC[C@@H]1NC(=O)[C@@H]2CSCCCSC[C@@H](NC(=O)[C@H](Cc3c[nH]c4ccccc34)NC(=O)[C@@H]3CCCN3C(=O)[C@H](CC(=O)O)NC(=O)[C@H](Cc3ccc(F)cc3)NC(=O)[C@H](CO)NC1=O)C(=O)NCCC(=O)N1CCC[C@H]1C(=O)N[C@@H](CCCC)C(=O)N2` [KS-58, c[βAla-Pro-Nle-c(Cys-Anon-Ser-4fF-Asp-Pro-Trp-^DCys)]] (cyclo([βAla]P[Nle]C[X1]S[Phe(4-F)]DPW[dC]); linker 4-11 via X2), the “Detection in plasma by RP-HPLC” value ([1]; 20 mg/kg iv, 15 min and 1 h after injection) is reported as “detected”, the “Detection in plasma by RP-HPLC” value ([1]; 20 mg/kg iv, 4 h and 24 h after injection) is reported as “not detected” and the “peptide concentration in the blood” value ([1]; 20 mg/kg iv, for at least 1 h after the injection) is reported as “more than 30 μM”. For the same molecule, the half-life ([1]; male, Slc:ICR, mouse, plasma, 20 mg/kg intravenous injection, n = 3, read-out: blood circulation half-life (t1/2) in the elimination phase) was 1 ± 0.0317 h and the “Tumor growth (tumor volume) in subcutaneous xenografts” value [2] was “significant tumor growth suppression”.
